Reference: PubChem BioAssay (NCI)
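96-well plates; 48 h exposure; 5 concentrations. Endpoints by linear interpolation between flanking doses. Not reached: highest tested concentration assigned. At the GI50, growth is halved. TGI marks complete inhibition of growth.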

Key:
Assay in all cases: NCI-60 cell line screen, 48 h
A498 renal = system: A498 renal
HT29 colon = system: HT29 colon
IGROV1 ovarian = system: IGROV1 ovarian
SN12C renal = system: SN12C renal
A549 NSCLC = system: A549 NSCLC
PC-3 prostate = system: PC-3 prostate
NCI/ADR-RES ovarian = system: NCI/ADR-RES ovarian
HOP-62 NSCLC = system: HOP-62 NSCLC
CAKI-1 renal = system: CAKI-1 renal
T-47D breast = system: T-47D breast

Structure (SMILES)	GI50 (A498 renal)	TGI (A498 renal)	GI50 (HT29 colon)	TGI (HT29 colon)	GI50 (IGROV1 ovarian)	TGI (IGROV1 ovarian)	GI50 (SN12C renal)	TGI (SN12C renal)	GI50 (A549 NSCLC)	TGI (A549 NSCLC)	GI50 (PC-3 prostate)	TGI (PC-3 prostate)	GI50 (NCI/ADR-RES ovarian)	TGI (NCI/ADR-RES ovarian)	GI50 (HOP-62 NSCLC)	TGI (HOP-62 NSCLC)	GI50 (CAKI-1 renal)	TGI (CAKI-1 renal)	GI50 (T-47D breast)	TGI (T-47D breast)
COc1ccc(-c2nnc(N3CCN(C(=O)CN4CCN(c5ccc(Cl)cc5)CC4)CC3)nc2-c2ccc(OC)cc2)cc1	27.7 µM	72.2 µM	4.74 µM	> 100 µM	29.4 µM	> 100 µM	17.8 µM	> 100 µM	27.4 µM	> 100 µM	9.58 µM	> 100 µM	20.7 µM	> 100 µM	26.2 µM	81.1 µM	28.5 µM	> 100 µM	4.51 µM	74.8 µM
CNC(=O)OC1C(O[C@H]2C[C@H]3[C@@H]4CC=C5C[C@@H](O)CC[C@]5(C)[C@H]4CC[C@]3(C)[C@H]2[C@H](C)C(=O)CCC(C)C)OCC(O)C1OC1OCC(O)C(O)C1OC(=O)c1ccc(OC)cc1 (some centres undefined)	0.00446 µM	0.0205 µM	0.0631 µM	4.92 µM	0.0224 µM	3.95 µM	2.64 µM	6.83 µM	0.0178 µM	4.96 µM	0.01 µM	0.447 µM	7.1 µM	27.5 µM	0.0225 µM	2.85 µM	0.0676 µM	1.04 µM	0.035 µM	3.69 µM
O=C(Nc1ccccc1O)c1ccc(CNC(=O)c2sccc2Nc2ccnc(C(F)(F)F)c2)cc1	2.62 µM	9.7 µM	6.21 µM	27 µM	14 µM	32.7 µM	13.7 µM	55.1 µM	8.68 µM	28.2 µM	4.56 µM	36.8 µM	4.67 µM	46.9 µM	10.9 µM	42.7 µM	6.63 µM	23.9 µM	3.45 µM	29.9 µM
O=S(=O)(NCCNc1cc(-c2cn(-c3ccccc3)nc2-c2cccc(O)c2)ccn1)c1ccc(Cl)cc1	2.33 µM	9.52 µM	2.24 µM	5.21 µM	3.82 µM	24.2 µM	3.47 µM	14 µM	3.89 µM	18.8 µM	2.45 µM	12 µM	2.84 µM	13.4 µM	2.87 µM	13.7 µM	4.46 µM	> 100 µM	2.16 µM	7.74 µM
COc1ccc(C(=O)COc2cccc(/C=C3\CSc4ccc(Cl)cc4C3=O)c2)cc1	36.5 µM	> 100 µM	3.32 µM	11.4 µM		11.6 µM	8.16 µM	25.7 µM	64 µM	> 100 µM	3.97 µM	20.4 µM	11.4 µM	29.9 µM	19.5 µM	47.3 µM	12.4 µM	25.1 µM	5.4 µM	28.9 µM
COc1ccc(CC(NC(=O)[C@H](C)NC(=O)CN2CCOCC2)C(=O)N[C@@H](Cc2ccccc2)C(=O)[C@@]2(C)CO2)cc1 (some centres undefined)	0.224 µM	0.893 µM	0.339 µM	> 33.9 µM	0.409 µM	7.3 µM	0.263 µM	1.53 µM	0.461 µM	> 22.9 µM	0.229 µM	0.631 µM	19.8 µM	> 100 µM	0.191 µM	0.453 µM	4.29 µM	> 57.8 µM	0.208 µM	0.482 µM
Cc1cc(C)n(C(=O)c2nn(-c3ccc(Cl)cc3)cc2O)n1	2.9 µM	8.77 µM	32.9 µM	> 100 µM	3.16 µM	73.3 µM	3.37 µM	> 100 µM	3.72 µM	> 100 µM	7.05 µM	> 100 µM	4.42 µM	> 100 µM	5.21 µM	79.4 µM	4.23 µM	42.3 µM	3.67 µM	> 100 µM
